Results taken from article PMC10821532, “Sex and Cross-Sex Testosterone Treatment Alters Gamma-Hydroxybutyrate Acid Toxicokinetics and Toxicodynamics in Rats” (Pharmaceutics, 2024).

Tested on: Sprague Dawley (SD) rats
Experiment: Sedative/hypnotic effect (sleep time, RRR-LRR) after i.v. GHB
Format: in vivo
Details: 1500 mg/kg GHB iv
Procedure: Jugular vein cannulas were surgically implanted under anesthesia with ketamine/xylazine. Cannulas were flushed daily with heparinized saline to maintain patency. Rats were allowed a minimum of 72 h for recovery from surgery before the experiments were conducted. GHB was administered intravenously as a 1000 mg/kg i.v. bolus or 1500 mg/kg iv bolus with or without AR-C155858 (1 mg/kg i.v. bolus) via a jugular vein cannula to the animals at 13 weeks of age (N = 5–7 per group). Rats were dosed in metabolic cages with ad libitum access to water to allow for the concurrent collection of blood and urine samples for up to 8 h. GHB was administered as a 300 mg/mL solution in sterile water, and the time of administration was considered as time 0. AR-C155858 was administered as a 1 mg/mL solution in 10% cyclodextrin in normal saline 5 min after GHB administration. Blood samples (200 μL) were taken from the jugular vein cannula at different time points: 5, 10, 20, 30, 60, 90, 120, 180, 240, 270, 300, and 330 min for 1000 mg/kg and 10, 30, 60, 90, 120, 180, 240, 270, 300, 330, 360, and 390/480 min for 1500 mg/kg bolus with or without AR-C155858. Plasma samples were separated by centrifugation and stored at −20 °C. Urine samples were collected at 120, 240, and 360 min for 1000 mg/kg and 120, 240, and 390/480 min for 1500 mg/kg bolus with or without AR-C155858 post-dose; the total urine volume was determined, and the samples were stored at −20 °C.
The sedative/hypnotic effects (sleep time) were determined, as described in a previous publication. The sedative/hypnotic duration effect of GHB was determined as the difference between the offset of the sedative/hypnotic effect (RRR) and the onset of the sedative/hypnotic effect (LRR).

O=C(O)CCCO [GHB, Γ-hydroxybutyric acid]
Sleep time (RRR–LRR), average (testosterone-treated CST rats): 422.5 min
Sleep time, two individual rats (two of the testosterone-treated CST rats): ~ 600 min
